Results taken from patent US20050282840A1, “Methods of modulating neurotrophin-mediated activity” (PainCeptor Pharma Corporation, priority 2004, published 2005).
Where two headings read alike, the source gives them in different places.

Key:
[1] = test system: p75^NTR receptors (PC12 cells); assay: Basic screening assay: binding of 125I-NGF to PC12 cells; details: Table 4; test compound 50 μM; 0.5 nM 125I-NGF; PC12 cells; 2 h at 4° C.; specific binding as percent of control
Procedure, shortened: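 PC12 cells (4×10^6) incubated 2 h at 4° C with 0.5 nM 125I-NGF and test compound at 50 μM, rotating. Bound tracer pelleted through 10% glycerol and gamma-counted; specific binding expressed as percent of control after NSB subtraction.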

[2] = target: T1, p75^NTR receptors (PC12 cells) (Rattus norvegicus, UniProt P07174); assay: Basic screening assay: binding of 125I-BDNF to PC12 cells; details: read-out: BDNF Activity % Maximal Binding
T1 construct: endogenous in cells; host or cells: PC12 cells
T1 sequence (P07174 30-425): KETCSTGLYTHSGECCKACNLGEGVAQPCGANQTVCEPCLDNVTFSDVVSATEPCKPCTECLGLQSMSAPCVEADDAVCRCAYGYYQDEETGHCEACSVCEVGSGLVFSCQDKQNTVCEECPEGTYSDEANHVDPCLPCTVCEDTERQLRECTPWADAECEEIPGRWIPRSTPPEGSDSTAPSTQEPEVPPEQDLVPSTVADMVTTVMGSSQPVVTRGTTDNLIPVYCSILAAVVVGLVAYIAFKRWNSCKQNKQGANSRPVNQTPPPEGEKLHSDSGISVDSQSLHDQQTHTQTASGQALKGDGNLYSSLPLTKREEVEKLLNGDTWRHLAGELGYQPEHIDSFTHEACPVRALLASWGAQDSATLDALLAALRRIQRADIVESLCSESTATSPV
T1 sequence (P23560 129-247 partner): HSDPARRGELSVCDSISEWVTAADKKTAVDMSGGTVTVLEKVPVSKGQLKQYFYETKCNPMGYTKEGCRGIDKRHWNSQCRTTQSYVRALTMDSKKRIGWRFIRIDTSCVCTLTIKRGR
Procedure, shortened: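 4×10^6 PC12 cells incubated 2 h at 4° C, rotating, with 0.5 nM ^125I-BDNF (final) and compound at 50 μM, in duplicate or more. Bound ligand separated through 10% glycerol by centrifugation and counted by gamma counter; specific binding is Bmax minus NSB; inhibitors followed up for EC50.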

[3] = Table 4, test compound 50 μM, 0.5 nM 125I-BDNF, PC12 cells, 2 h at 4° C., specific binding as percent of control

COc1cc([N+](=O)[O-])ccc1-c1ccc(/C=C2\SC(=S)NC2=O)o1 [Compound 101, 5-[5-(2-Methoxy-4-nitrophenyl)furan-2-ylmethylene]-2-thioxo-thiazolidin-4-one]
NGF Activity % Maximal Binding [1]: * (50 < *)
activity at 50 µM [2, 3]: > 50%

Cc1ccc(N2NC(=O)/C(=C/c3ccc(-c4ccc(S(N)(=O)=O)cc4)o3)C2=O)cc1 [Compound 102, 4-[5-(3,5-Dioxo-1-p-tolyl-pyrazolidin-4-ylidenemethyl)furan-2-yl]benzenesulfonamide]
NGF Activity % Maximal Binding [1]: * (50 < *)
activity at 50 µM [2, 3]: > 50%

N=C1NC(=O)C(=Cc2ccc(-c3ccc([N+](=O)[O-])cc3Br)o2)S1 [Compound 103, 5-[5-(2-Bromo-4-nitrophenyl)furan-2-ylmethylene]-2-imino-thiazolidin-4-one]
NGF Activity % Maximal Binding [1]: * (50 < *)
activity at 50 µM [2, 3]: > 50%

CCc1ccc(N2NC(=O)/C(=C/c3ccc(-c4ccc(S(N)(=O)=O)cc4)o3)C2=O)cc1 [Compound 104, 4-{5-[1-(4-Ethylphenyl)-3,5-dioxo-pyrazolidin-4-ylidenemethyl]furan-2-yl}benzenesulfonamide]
NGF Activity % Maximal Binding [1]: * (50 < *)
activity at 50 µM [2, 3]: > 50%

NS(=O)(=O)c1ccc(-c2ccc(C=C3C(=O)NC(=S)NC3=O)o2)cc1 [Compound 105, 4-[5-(4,6-Dioxo-2-thioxo-tetrahydro-pyrimidin-5-ylidenemethyl)furan-2-yl]benzenesulfonamide]
NGF Activity % Maximal Binding [1]: * (50 < *)
activity at 50 µM [2]: > 50%

Cc1ccc(-c2ccc(C=C3C(=O)NC(=S)NC3=O)o2)cc1[N+](=O)[O-] [Compound 106, 5-[5-(4-Methyl-3-nitrophenyl)furan-2-ylmethylene]-2-thioxo-dihydro-pyrimidine-4,6-dione]
NGF Activity % Maximal Binding [1]: * (50 < *)
activity at 50 µM [2]: > 50%

COC(=O)c1cccc(-c2ccc(C=C3C(=O)NC(=S)NC3=O)o2)c1 [Compound 107, 3-[5-(4,6-Dioxo-2-thioxo-tetrahydro-pyrimidin-5-ylidenemethyl)furan-2-yl]benzoic acid methyl ester]
NGF Activity % Maximal Binding [1]: * (50 < *)
activity at 50 µM [2]: > 50%

O=C1NC(=S)N/C1=C/c1ccc(-c2ccc(C(=O)O)c(Cl)c2)o1 [Compound 108, 2-Chloro-4-[5-(5-oxo-2-thioxo-imidazolidin-4-ylidenemethyl)furan-2-yl]benzoic acid]
NGF Activity % Maximal Binding [1]: * (50 < *)
activity at 50 µM [2, 3]: > 50%

Cc1c(-c2ccc(C=C3C(=O)NC(=O)NC3=O)o2)cccc1[N+](=O)[O-] [Compound 109, 5-[5-(2-Methyl-3-nitrophenyl)furan-2-ylmethylene]-pyrimidine-2,4,6-trione]
NGF Activity % Maximal Binding [1]: * (50 < *)
activity at 50 µM [2]: > 50%

CCN1C(=O)S/C(=C\c2ccc(-c3ccc([N+](=O)[O-])cc3)o2)C1=O [Compound 110, 3-Ethyl-5-[5-(4-nitrophenyl)furan-2-ylmethylene]-thiazolidine-2,4-dione]
NGF Activity % Maximal Binding [1]: * (50 < *)
activity at 50 µM [2, 3]: > 50%

CSC1=NC(=Cc2ccc(-c3ccc([N+](=O)[O-])cc3)o2)C(=O)S1 [Compound 111, 2-Methylsulfanyl-4-[5-(4-nitrophenyl)furan-2-ylmethylene]-4H-thiazol-5-one]
NGF Activity % Maximal Binding [1]: * (50 < *)
activity at 50 µM [2, 3]: > 50%

CSC1=NC(=Cc2ccc(-c3cccc([N+](=O)[O-])c3)o2)C(=O)S1 [Compound 112, 2-Methylsulfanyl-4-[5-(3-nitrophenyl)furan-2-ylmethylene]-4H-thiazol-5-one]
NGF Activity % Maximal Binding [1]: * (50 < *)
activity at 50 µM [2, 3]: > 50%

CCOC(=O)CN1C(=O)S/C(=C\c2ccc(-c3ccc(Cl)c([N+](=O)[O-])c3)o2)C1=O [Compound 113, {5-[5-(4-Chloro-3-nitrophenyl)furan-2-ylmethylene]-2,4-dioxo-thiazolidin-3-yl}-acetic acid ethyl ester]
NGF Activity % Maximal Binding [1]: * (50 < *)
activity at 50 µM [2, 3]: > 50%

Cc1ccc(-c2ccc(/C=C3/NC(=O)NC3=O)o2)cc1[N+](=O)[O-] [Compound 114, 5-[5-(4-Methyl-3-nitrophenyl)furan-2-ylmethylene]-imidazolidine-2,4-dione]
NGF Activity % Maximal Binding [1]: * (50 < *)
activity at 50 µM [2, 3]: > 50%

CCOC(=O)CN1C(=O)S/C(=C\c2ccc(-c3ccc(Cl)c(C(=O)O)c3)o2)C1=O [Compound 115, 2-Chloro-5-[5-(3-ethoxycarbonylmethyl-2,4-dioxo-thiazolidin-5-ylidenemethyl)furan-2-yl]benzoic acid]
NGF Activity % Maximal Binding [1]: * (50 < *)
activity at 50 µM [2, 3]: > 50%

CCOC(=O)CN1C(=O)S/C(=C/c2ccc(-c3cccc([N+](=O)[O-])c3)o2)C1=O [Compound 116, {5-[5-(3-Nitrophenyl)furan-2-ylmethylene]-2,4-dioxo-thiazolidin-3-yl}-acetic acid ethyl ester]
NGF Activity % Maximal Binding [1]: * (50 < *)
activity at 50 µM [2, 3]: > 50%

CCOC(=O)CN1C(=O)S/C(=C\c2ccc(-c3ccc([N+](=O)[O-])cc3)o2)C1=O [Compound 117, {5-[5-(4-Nitrophenyl)furan-2-ylmethylene]-2,4-dioxo-thiazolidin-3-yl}-acetic acid ethyl ester]
NGF Activity % Maximal Binding [1]: * (50 < *)
activity at 50 µM [2, 3]: > 50%

CCOC(=O)CN1C(=O)S/C(=C/c2ccc(-c3ccc([N+](=O)[O-])cc3OC)o2)C1=O [Compound 118, {5-[5-(2-Methoxy-4-nitrophenyl)furan-2-ylmethylene]-2,4-dioxo-thiazolidin-3-yl}-acetic acid ethyl ester]
NGF Activity % Maximal Binding [1]: * (50 < *)
activity at 50 µM [2, 3]: > 50%

O=C1NN(c2ccc(F)cc2)C(=O)C1=Cc1ccc(-c2ccc([N+](=O)[O-])cc2)o1 [Compound 119, 1-(4-Fluorophenyl)-4-[5-(4-nitrophenyl)furan-2-ylmethylene]-pyrazolidine-3,5-dione]
NGF Activity % Maximal Binding [1]: * (50 < *)
activity at 50 µM [2, 3]: > 50%

COCCN1C(=O)C(=Cc2ccc(-c3ccc([N+](=O)[O-])cc3)o2)SC1=S [Compound 120, 3-(2-Methoxy-ethyl)-5-[5-(4-nitrophenyl)furan-2-ylmethylene]-2-thioxo-thiazolidin-4-one]
NGF Activity % Maximal Binding [1]: * (50 < *)
activity at 50 µM [2, 3]: > 50%

CCOC(=O)CN1C(=O)S/C(=C/c2ccc(-c3ccc(C(=O)O)cc3C)o2)C1=O [Compound 121, 4-[5-(3-Ethoxycarbonylmethyl-2,4-dioxo-thiazolidin-5-ylidenemethyl)furan-2-yl]-3-methylbenzoic acid]
NGF Activity % Maximal Binding [1]: * (50 < *)
activity at 50 µM [2, 3]: > 50%

O=C1NC(=O)N(Cc2ccccc2)C(=O)/C1=C/c1ccc(-c2cccc(C(=O)O)c2)o1 [Compound 122, 3-[5-(1-benzyl-2,4,6-trioxo-tetrahydro-pyrimidin-5-ylidenemethyl)furan-2-yl]benzoic acid]
NGF Activity % Maximal Binding [1]: * (50 < *)
activity at 50 µM [2]: > 50%

COc1ccc([N+](=O)[O-])cc1-c1ccc(/C=C2/NC(=O)N(c3ccccc3)C2=O)o1 [Compound 123, 5-[5-(2-Methoxy-5-nitrophenyl)furan-2-ylmethylene]-3-phenyl-imidazolidine-2,4-dione]
NGF Activity % Maximal Binding [1]: * (50 < *)
activity at 50 µM [2, 3]: > 50%

Cc1cc(C)cc(N2C(=O)/C(=C/c3ccc(-c4ccc(C(=O)O)cc4)o3)C(=O)NC2=S)c1 [Compound 124, 4-{5-[1-(3,5-Dimethylphenyl)-4,6-dioxo-2-thioxo-tetrahydro-pyrimidin-5-ylidenemethyl]furan-2-yl}benzoic acid]
NGF Activity % Maximal Binding [1]: * (50 < *)
activity at 50 µM [2]: > 50%

O=C(O)c1ccc(-c2ccc(/C=C3/NC(=O)N(Cc4ccc(F)cc4)C3=O)o2)cc1 [Compound 126, 4-{5-[1-(4-Fluorobenzyl)-2,5-dioxo-imidazolidin-4-ylidenemethyl]furan-2-yl}benzoic acid]
NGF Activity % Maximal Binding [1]: * (50 < *)
activity at 50 µM [2, 3]: > 50%

O=C1NC(=Cc2ccc(-c3ccc(Cl)c([N+](=O)[O-])c3)o2)C(=O)N1c1ccccc1 [Compound 127, 5-[5-(4-Chloro-3-nitrophenyl)furan-2-ylmethylene]-3-phenyl-imidazolidine-2,4-dione]
NGF Activity % Maximal Binding [1]: * (50 < *)
activity at 50 µM [2, 3]: > 50%

COC(=O)c1ccc(-c2ccc(/C=C3/NC(=O)N(c4cccc(Cl)c4)C3=O)o2)cc1 [Compound 128, 4-{5-[1-(3-Chlorophenyl)-2,5-dioxo-imidazolidin-4-ylidenemethyl]furan-2-yl}benzoic acid methyl ester]
NGF Activity % Maximal Binding [1]: * (50 < *)
activity at 50 µM [2, 3]: > 50%
